Biological target: T1, ΔF508-CFTR (Homo sapiens, UniProt P13569, DEL508-508)
T1 construct: Primary lung epithelial cells homozygous for the Cystic Fibrosis-causing ΔF508 mutation were differentiated; endogenous in cells; host or cells: primary human bronchial epithelial cells (hBE), ΔF508/ΔF508
Assay: hBE equivalent current (Ieq) assay, CFTR activity
Assay type: cell-based
Conditions: relative to a CFTR amplifier at 3 μM, ΔF508 homozygous hBE, 24 h treatment; for Activity 3 μM: compound at 3 μM; for Activity 10 μM: compound at 10 μM
Experimental: Primary lung epithelial cells homozygous for the Cystic Fibrosis-causing ΔF508 mutation were differentiated for a minimum of 4 weeks in an air-liquid interface on Costar 24 well HTS filter plates prior to the equivalent current (Ieq) measurements. Cells were apically mucus-washed for 30 minutes 24 h prior to treatment with compounds. The basolateral media was removed and replaced with media containing the compound of interest diluted to its final concentration from DMSO stocks. Treated cells were incubated at 37° C. and 5% CO2 for 24 hours. At the end of the treatment period, the media was changed to the Ieq experimental solution for 2 hours before the experiment and plates are maintained in a CO2-free incubator during this period. The plates containing the cells were then placed in pre-warmed heating blocks at 36° C.±0.5 for 15 minutes before measurements are taken. The transepithelial voltage (VT) and conductance (GT) were measured using a custom 24 channel current clamp (TECC-24) with 24 well electrode manifold. The Ieq assay measurements were made following additions with standardized time periods:
1. The baseline VT and GT values were measured for approximately 20 minutes.
2. Benzamil was added to block ENaC for 15 minutes.
3. Forskolin plus VX-770 were added to maximally activate ΔF508-CFTR for 27 minutes.
4. Bumetanide was added to inhibit the NaK2Cl cotransporter and shut-off secretion of chloride.
The activity data captured was the area under the curve (AUC) for the traces of the equivalent chloride current. The AUC was collected from the time of the forskolin/VX-770 addition until the inhibition by bumetanide addition. Correction in response to compound treatment was scored as the increase in the AUC for compound-treated samples over that of vehicle-treated samples.
The results are shown below in Table 1. + indicates activity <150% of a CFTR amplifier with compound at concentration shown and amplifier at 3 μM; ++ indicates activity >150% of a CFTR amplifier with compound at concentration shown and amplifier at 3 μM.

T1 sequence (P13569 with tags, fused parts or gaps DEL508-508): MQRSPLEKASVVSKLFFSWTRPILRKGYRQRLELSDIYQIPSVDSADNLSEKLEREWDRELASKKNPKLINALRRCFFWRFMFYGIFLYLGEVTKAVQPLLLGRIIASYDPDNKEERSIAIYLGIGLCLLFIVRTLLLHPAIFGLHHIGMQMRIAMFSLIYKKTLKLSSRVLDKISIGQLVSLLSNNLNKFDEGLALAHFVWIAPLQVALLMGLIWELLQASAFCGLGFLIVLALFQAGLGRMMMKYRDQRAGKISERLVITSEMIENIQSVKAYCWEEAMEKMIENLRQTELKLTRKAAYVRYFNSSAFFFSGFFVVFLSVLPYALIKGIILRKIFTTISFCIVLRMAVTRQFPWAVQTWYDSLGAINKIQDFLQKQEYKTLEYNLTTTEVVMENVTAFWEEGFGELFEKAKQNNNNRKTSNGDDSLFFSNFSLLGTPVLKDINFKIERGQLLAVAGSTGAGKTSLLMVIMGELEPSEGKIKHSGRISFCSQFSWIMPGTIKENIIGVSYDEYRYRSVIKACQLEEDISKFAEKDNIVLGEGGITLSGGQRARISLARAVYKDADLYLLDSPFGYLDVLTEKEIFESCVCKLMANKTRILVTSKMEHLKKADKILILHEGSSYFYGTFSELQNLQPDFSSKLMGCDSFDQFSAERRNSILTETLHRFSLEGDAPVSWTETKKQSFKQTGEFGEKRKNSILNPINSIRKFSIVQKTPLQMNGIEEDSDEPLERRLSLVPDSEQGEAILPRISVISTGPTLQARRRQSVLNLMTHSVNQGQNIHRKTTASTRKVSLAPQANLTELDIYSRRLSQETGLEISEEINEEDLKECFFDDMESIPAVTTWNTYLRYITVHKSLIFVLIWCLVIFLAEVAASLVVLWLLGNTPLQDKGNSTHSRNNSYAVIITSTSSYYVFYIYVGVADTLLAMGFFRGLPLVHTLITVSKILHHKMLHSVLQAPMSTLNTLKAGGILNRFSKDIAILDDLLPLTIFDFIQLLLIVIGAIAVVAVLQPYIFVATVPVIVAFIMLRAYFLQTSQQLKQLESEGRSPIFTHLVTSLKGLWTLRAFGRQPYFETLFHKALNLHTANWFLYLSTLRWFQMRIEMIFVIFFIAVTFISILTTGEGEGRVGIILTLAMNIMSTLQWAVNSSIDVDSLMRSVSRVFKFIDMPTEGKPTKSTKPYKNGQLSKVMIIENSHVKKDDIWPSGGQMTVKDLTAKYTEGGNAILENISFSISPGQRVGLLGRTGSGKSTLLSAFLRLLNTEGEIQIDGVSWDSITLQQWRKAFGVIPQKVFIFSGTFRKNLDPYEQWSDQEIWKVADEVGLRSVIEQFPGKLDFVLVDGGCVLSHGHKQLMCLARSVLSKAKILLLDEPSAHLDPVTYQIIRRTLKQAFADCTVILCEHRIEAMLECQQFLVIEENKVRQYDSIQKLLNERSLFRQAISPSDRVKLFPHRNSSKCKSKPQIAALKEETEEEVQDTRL

| SMILES | Activity 3 μM | Activity 10 μM |
| --- | --- | --- |
| CC(C(=O)Nc1cc(F)cc(F)c1)n1nc(-c2cccc(Cl)c2)ccc1=O (stereo not shown) [Compound 1, 2-[3-(3-Chlorophenyl)-6-oxo-1,6-dihydropyridazin-1-yl]-N-(3,5-difluorophenyl)propanamide] | ++ (activity >150% of a CFTR amplifier with compound at concentration shown and amplifier at 3 μM) | ++ (activity >150% of a CFTR amplifier with compound at concentration shown and amplifier at 3 μM) |
| CC(C(=O)Nc1cc(F)cc(F)c1)n1nc(-c2cccc(OC(F)(F)F)c2)ccc1=O (stereo not shown) [Compound 2, N-(3,5-Ddifluorophenyl)-2-[6-oxo-3-[3-(trifluoromethoxy)phenyl]-1,6-dihydropyridazin-1-yl]propanamide] | + (activity <150% of a CFTR amplifier with compound at concentration shown and amplifier at 3 μM) | + (activity <150% of a CFTR amplifier with compound at concentration shown and amplifier at 3 μM) |
| COc1cc(OC)cc(-c2ccc(=O)n(C(C)C(=O)Nc3cc(F)cc(F)c3)n2)c1 (stereo not shown) [Compound 3, N-(3,5-difluorophenyl)-2-[3-(3,5-dimethoxyphenyl)-6-oxo-1,6-dihydropyridazin-1-yl]propanamide] | ++ (activity >150% of a CFTR amplifier with compound at concentration shown and amplifier at 3 μM) | ++ (activity >150% of a CFTR amplifier with compound at concentration shown and amplifier at 3 μM) |
| CC(C(=O)Nc1cc(F)cc(F)c1)n1nc(-c2cccc(N(C)C)c2)ccc1=O (stereo not shown) [Compound 4, N-(3,5-Difluorophenyl)-2-[3-[3-(dimethylamino)phenyl]-6-oxo-1,6-dihydropyridazin-1-yl]propanamide] |  | + (activity <150% of a CFTR amplifier with compound at concentration shown and amplifier at 3 μM) |
| CC(C(=O)Nc1cc(F)cc(F)c1)n1nc(-c2cccc(-c3ccccc3)c2)ccc1=O (stereo not shown) [Compound 5, N-(3,5-Difluorophenyl)-2-[6-oxo-3-(3-phenylphenyl)-1,6-dihydropyridazin-1-yl]propanamide] | + (activity <150% of a CFTR amplifier with compound at concentration shown and amplifier at 3 μM) | + (activity <150% of a CFTR amplifier with compound at concentration shown and amplifier at 3 μM) |
| COc1cccc(NC(=O)C(C)n2nc(-c3cccc(OC)c3)ccc2=O)c1 (stereo not shown) [Compound 6, N-(3-Methoxyphenyl)-2-[3-(3-methoxyphenyl)-6-oxo-1,6-dihydropyridazin-1-yl]propanamide] | + (activity <150% of a CFTR amplifier with compound at concentration shown and amplifier at 3 μM) | + (activity <150% of a CFTR amplifier with compound at concentration shown and amplifier at 3 μM) |
| COc1cccc(-c2ccc(=O)n(C(C)C(=O)Nc3cccc(C(F)(F)F)c3)n2)c1 (stereo not shown) [Compound 7, 2-[3-(3-Methoxyphenyl)-6-oxo-1,6-dihydropyridazin-1-yl]-N-[3-(trifluoromethyl)phenyl]propanamide] | + (activity <150% of a CFTR amplifier with compound at concentration shown and amplifier at 3 μM) | + (activity <150% of a CFTR amplifier with compound at concentration shown and amplifier at 3 μM) |
| COc1cccc(-c2ccc(=O)n(C(C)C(=O)Nc3ccccc3C(C)(C)C)n2)c1 (stereo not shown) [Compound 9, N-(2-tert-Butylphenyl)-2-[3-(3-methoxyphenyl)-6-oxo-1,6-dihydropyridazin-1-yl]propanamide] | + (activity <150% of a CFTR amplifier with compound at concentration shown and amplifier at 3 μM) | + (activity <150% of a CFTR amplifier with compound at concentration shown and amplifier at 3 μM) |
| COc1cccc(-c2ccc(=O)n(C(C)C(=O)Nc3cccc(C(C)(C)C)c3)n2)c1 (stereo not shown) [Compound 10, N-(3-tert-Butylphenyl)-2-[3-(3-methoxyphenyl)-6-oxo-1,6-dihydropyridazin-1-yl]propanamide] |  | ++ (activity >150% of a CFTR amplifier with compound at concentration shown and amplifier at 3 μM) |
| COc1cccc(-c2ccc(=O)n(C(C)C(=O)Nc3ccc(C(C)(C)C)cc3)n2)c1 (stereo not shown) [Compound 11, N-(4-tert-Butylphenyl)-2-[3-(3-methoxyphenyl)-6-oxo-1,6-dihydropyridazin-1-yl]propanamide] |  | + (activity <150% of a CFTR amplifier with compound at concentration shown and amplifier at 3 μM) |
| COc1cccc(-c2ccc(=O)n(C(C)C(=O)Nc3ccccc3Cl)n2)c1 (stereo not shown) [Compound 12, N-(2-Chlorophenyl)-2-[3-(3-methoxyphenyl)-6-oxo-1,6-dihydropyridazin-1-yl]propanamide] | + (activity <150% of a CFTR amplifier with compound at concentration shown and amplifier at 3 μM) | + (activity <150% of a CFTR amplifier with compound at concentration shown and amplifier at 3 μM) |
| COc1cccc(-c2ccc(=O)n(C(C)C(=O)Nc3cccc(Cl)c3)n2)c1 (stereo not shown) [Compound 13, N-(3-Chlorophenyl)-2-[3-(3-methoxyphenyl)-6-oxo-1,6-dihydropyridazin-1-yl]propanamide] | ++ (activity >150% of a CFTR amplifier with compound at concentration shown and amplifier at 3 μM) | ++ (activity >150% of a CFTR amplifier with compound at concentration shown and amplifier at 3 μM) |
| COc1cccc(-c2ccc(=O)n(C(C)C(=O)Nc3ccc(Cl)cc3)n2)c1 (stereo not shown) [Compound 14, N-(4-Chlorophenyl)-2-[3-(3-methoxyphenyl)-6-oxo-1,6-dihydropyridazin-1-yl]propanamide] |  | ++ (activity >150% of a CFTR amplifier with compound at concentration shown and amplifier at 3 μM) |
| COc1cccc(-c2ccc(=O)n(C(C)C(=O)Nc3ccccc3)n2)c1 (stereo not shown) [Compound 15, 2-[3-(3-Methoxyphenyl)-6-oxo-1,6-dihydropyridazin-1-yl]-N-phenylpropanamide] | + (activity <150% of a CFTR amplifier with compound at concentration shown and amplifier at 3 μM) | + (activity <150% of a CFTR amplifier with compound at concentration shown and amplifier at 3 μM) |
| COc1cccc(-c2ccc(=O)n(CC(=O)Nc3cc(F)cc(F)c3)n2)c1 [Compound 16, N-(3,5-Difluorophenyl)-2-[3-(3-methoxyphenyl)-6-oxo-1,6-dihydropyridazin-1-yl]acetamide] |  | + (activity <150% of a CFTR amplifier with compound at concentration shown and amplifier at 3 μM) |
| COc1cccc(-c2ccc(=O)n(C(C)C(=O)N(C)c3cc(F)cc(F)c3)n2)c1 (stereo not shown) [Compound 17, N-(3,5-Difluorophenyl)-2-[3-(3-methoxyphenyl)-6-oxo-1,6-dihydropyridazin-1-yl]-N-methylpropanamide] | + (activity <150% of a CFTR amplifier with compound at concentration shown and amplifier at 3 μM) | + (activity <150% of a CFTR amplifier with compound at concentration shown and amplifier at 3 μM) |
| COc1cccc(-c2ccc(=O)n(C(C)(C)C(=O)Nc3cc(F)cc(F)c3)n2)c1 [Compound 18, N-(3,5-Difluorophenyl)-2-(3-(3-methoxyphenyl)-6-oxopyridazin-1(6H)-yl)-2-methylpropanamide] | + (activity <150% of a CFTR amplifier with compound at concentration shown and amplifier at 3 μM) | + (activity <150% of a CFTR amplifier with compound at concentration shown and amplifier at 3 μM) |
| Cc1ccc(-c2ccc(=O)n(C(C)C(=O)Nc3cc(F)cc(F)c3)n2)cc1O (stereo not shown) [Compound 19, N-(3,5-Difluorophenyl)-2-[3-(3-hydroxy-4-methylphenyl)-6-oxo-1,6-dihydropyridazin-1-yl]propanamide] |  | + (activity <150% of a CFTR amplifier with compound at concentration shown and amplifier at 3 μM) |
| COc1cccc(-c2cc(C)c(=O)n(C(C)C(=O)Nc3cc(F)cc(F)c3)n2)c1 (stereo not shown) [Compound 20, N-(3,5-Difluorophenyl)-2-[3-(3-methoxyphenyl)-5-methyl-6-oxo-1,6-dihydropyridazin-1-yl]propanamide] | + (activity <150% of a CFTR amplifier with compound at concentration shown and amplifier at 3 μM) | + (activity <150% of a CFTR amplifier with compound at concentration shown and amplifier at 3 μM) |
| COc1cccc(-c2nn(C(C)C(=O)Nc3cc(F)cc(F)c3)c(=O)cc2C)c1 (stereo not shown) [Compound 21, N-(3,5-Difluorophenyl)-2-[3-(3-methoxyphenyl)-4-methyl-6-oxo-1,6-dihydropyridazin-1-yl]propanamide] | + (activity <150% of a CFTR amplifier with compound at concentration shown and amplifier at 3 μM) | + (activity <150% of a CFTR amplifier with compound at concentration shown and amplifier at 3 μM) |
